Consider one compound from PMC12091851, “Replacing a Cereblon Ligand by a DDB1 and CUL4 Associated Factor 11 (DCAF11) Recruiter Converts a Selective Histone Deacetylase 6 PROTAC into a Pan‐Degrader” (Chemmedchem, 2025).

The test system of experiment [1] is acetylated α-tubulin and histone H3. In words: Cellular target engagement, immunoblot of acetylated α-tubulin and histone H3 in MM.1S. In kind it is cell-based, human. To be noted: MM.1S cells, 10 μM, 24 h; compared to 2 and A6. On the procedure:
Moreover, the capability to reduce the enzymatic activity of HDACs was confirmed by a cellular target engagement assay. MM.1S cells were treated with the PROTACs and the level of acetylated HDAC substrate proteins was subsequently determined. Class I HDACs deacetylate histone H3, and thus hyperacetylation of histone H3 indicates class I HDAC inhibition. Conversely, hyperacetylation of α‐tubulin serves a marker of HDAC6 inhibition. Both hit compounds are capable of inhibiting class I and HDAC6 in a cellular environment, confirming effective target engagement in MM.1S cells (Figure 5). With regards to the HDAC6 inhibition, the trend of the enzyme inhibition data was thus confirmed. […]
Samples of the aqueous solutions were taken after 0, 24, 48, and 72 h at room temperature and the amounts of the parental compound and potential fragments were monitored by HPLC gradient A (see 3.1 General Information). […]
Afterwards, proteins were transferred with the Trans -Blot Turbo Transfer System (Catalog# 1704150, Bio-Rad) to Immobilon-FL PVDF membranes (Catalog# IPFL00005, Mill ipore Merck, Burlington, MA, USA) at 1.0 A for 30 min and treated with 5% milk-powder solution for 1 h at room temperature under slight agitation. […] The ChemiDoc XRS+ System (Catalog# 1708265 , Bio-Rad) was used for detection and Image Lab Software 6.1 (Bio-Rad) for quantification. […]

Experiment [2] deals with HDAC1, 2, 4, and 6. Description: Immunoblot HDAC isoform degradation in MM.1S, all tested isoforms. In kind it is cell-based, human. To be noted: MM.1S cells, 10 μM, 24 h. On the procedure: Figure 6 Examination of HDAC isoform degradation. MM.1S cells were treated with the indicated compounds (10 μM) or vehicle (DMSO) for 24 h. HDAC1, 2, 4, and 6 levels were analyzed by immunoblotting. (A) Representative images from a total of n=3 biological replicates.
2.5. Aqueous Stability Assay
For stability testing in aqueous solution, a 10-fold concentrated DMSO solution of the respective compounds was diluted in DPBS to generate a 10 µM concentration (final DMSO content of 10%).
Samples of the aqueous solutions were taken after 0, 24, 48, and 72 h at room temperature and the amounts of the parental compound and potential fragments were monitored by HPLC gradient A (see 3.1 General Information). The peak area of the 0 h sample was used for normalization. All compounds were tested in duplicates and GraphPad Prim was used for evaluation and data visualization.
The cell lysis was performed as descripted in 3.2. Simple Western Immunoassay. Samples were denatured by Laemmli 2× Concentrate (Catalog# S3401-10VL, Sigma-Aldrich) for 5 min at 95 °C, and […]
Bio-Rad, Hercules, CA, USA). […]
6.1 (Bio-Rad) for quantification. […]
In vitro inhibitory activities against HDAC1, 2 , and 6 were measured using a previously published protocol.[3] In vitro inhibitory activities against HDAC4 were measured using a previously published protocol with slight modifications. […]
Background: A western blot detects proteins with antibodies after separation by electrophoresis.

As to `O=C(CCCCCCNC(=O)c1ccc(NC(=O)CCCCCCCCCCCN(C(=O)CCl)C(C(=O)NCc2ccccc2)c2ccc(Cl)c(Cl)c2)cc1)NO` (centres unmarked) [Compound 1j], in experiment [1], the “histone H3 hyperacetylation” value was “more pronounced”. The “Dmax, all four tested isoforms / other HDAC isoforms” value in experiment [2] was 71–90%.
